# Entries after “also recorded” stand apart in the source; their conditions may differ. Where two headings read alike, the source gives them in different places.
# Columns and labels:
# B cell lymphoma = conditions: 0.1 MBq, B cell lymphoma mouse model; cited from earlier work
# fibrosarcoma = conditions: about 2.5 MBq, fibrosarcoma mouse model; cited from earlier work
# [1] = Wagner et al., Cancer Research 2003; cited from earlier work
# melanoma = assay: Organ activities in melanoma-bearing nude mice
# Text: A prognosis as to the tumor/background ratio in a tumor image can be made by means of the tumor/blood radioactivity ratio of a tracer in a tumor model.
# [2] = quenched product
# [3] = system: non-parvicellular lung tumor; assay: Organ activities in lung tumor-bearing nude mice; conditions: about 0.5 MBq non-quenched tracer i.v.
# [4] = about 0.5 MBq quenched tracer i.v., after 60 min
SMILES,tumor/blood radioactivity ratio (B cell lymphoma),tumor/blood radioactivity ratio (fibrosarcoma),storage in the spleen of mice [1],tumor/blood radioactivity ratio (melanoma; [4]),tumor/organ radioactivity ratios (melanoma; [4]),"storage of 18F in bone (melanoma; about 0.5 MBq quenched tracer i.v., compared with non-quenched product)",PET imaging of tumor (melanoma; melanoma mouse model),passage of the blood-brain barrier (melanoma; mouse animal experiments),"storage in tumor (melanoma; mouse model, lung tumor and melanoma (summary))",stability in serum ([2]; serum at room temperature (21° C.)),stability in serum ([2]; serum in an incubator at 37° C.),"increase of the fluoride concentration (isotonic NaCl solution at 21° C., over 4 hours, quenched with triethylamine)","stability in isotonic NaCl solution (isotonic NaCl solution, room temperature, before quenching step)","increase of the F ion concentration (isotonic NaCl solution, room temperature, within 1 hour, before quenching step)",absorption of 18F in bone tissue ([3]; 30 and 60 min),storage of activity in organs ([3]; organ activities after 30 min and 60 min)
"Cc1cn([C@H]2C[C@H]([18F])[C@@H](CO)O2)c(=O)[nH]c1=O [^18F-FLT, 3′-^18F-fluoro-3′-deoxythymidine]",about 7,1.8,Marked storage,–,–,–,–,–,–,–,–,–,–,–,–,–
"[N-]=[N+]=N[C@H]1C[C@H](n2cc(C([18F])[18F])c(=O)[nH]c2=O)O[C@@H]1CO [α,α-^18F2-AZT, 5,5-^18F-difluoro-3′-deoxy-3′-azidothymidine]",–,–,–,3.2,high,lower,allows PET imaging of melanoma in a mouse model,passes the blood-brain barrier; also recorded: capable of passing the blood-brain barrier,stored in lung tumor and in melanoma,A similar result,markedly improved stability,scarcely any increase,stable,3 to 4.5%,particularly high,"activity was stored in the tumor, in the spleen and in the colon"
